Test results published in patent publication US20130165440A1, “JAK1 Inhibitors” (EXELIXIS, INC., priority 2010, published 2013).

These compounds were tested against T1, recombinant JAK1 enzyme (Homo sapiens, UniProt P23458) (assay: JAK1 Kinase Assay (luciferase-luciferin-coupled chemiluminescence, ATP consumption)). Settings: 8 nM JAK1 (V866-K1155), 30 μM IRS-1 peptide (Y608), 2 μM ATP, 2 hours ambient temperature, KinaseGlo; read-out: JAK1 IRS-1tide Chemilum (IC50).
T1 construct: 8 nM of recombinant JAK1 enzyme (Insect expressed: V866-K1155); host or cells: insect cells
Assay type: biochemical
Experimental: JAK1 Kinase Assay Used to Test Compounds
JAK1 Kinase activity was measured as the percent of ATP consumed following the kinase reaction using luciferase-luciferin-coupled chemiluminescence. The reaction was conducted in white medium binding 384-well microtiter plates. The kinase reaction were initiated by combining test compounds, 8 nM of recombinant JAK1 enzyme (Insect expressed: V866-K1155), 30 μM of IRS-1 peptide (Y608) and 2 μM ATP in buffer containing 20 mM Hepes (pH 7.5), 10 mM MgCl2, 0.01% Brij, 5% glycerol and 1 mM DTT in a 20 μL volume. The reaction mixture was incubated at ambient temperature for 2 hours. Following the kinase reaction, a 20 μL aliquot of KinaseGlo was added to stop the reaction and measure remaining ATP via detection of chemiluminescence using the Envison reader. Total ATP consumption was limited to 25-60%.

T1 sequence (P23458 865-1154 limits assumed): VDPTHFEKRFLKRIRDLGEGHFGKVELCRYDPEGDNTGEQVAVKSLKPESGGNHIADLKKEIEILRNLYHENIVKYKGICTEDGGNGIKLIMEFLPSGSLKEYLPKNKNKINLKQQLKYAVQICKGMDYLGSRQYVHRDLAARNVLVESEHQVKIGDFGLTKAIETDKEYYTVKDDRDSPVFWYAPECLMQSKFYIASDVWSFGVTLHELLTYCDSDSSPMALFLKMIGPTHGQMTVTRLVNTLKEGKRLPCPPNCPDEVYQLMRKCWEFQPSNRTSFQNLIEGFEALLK

First: CNc1nnc(-c2ccc(-c3nnc(Nc4cc(C(F)(F)F)cc(C(F)(F)F)c4)c4ccccc34)cc2)s1 [Compound 1, N-[3,5-bis(trifluoromethyl)phenyl]-4-{4-[5-(methylamino)-1,3,4-thiadiazol-2-yl]phenyl}phthalazin-1-amine]
Second: NC(=O)c1ccc(-c2nnc(Nc3cc(C(F)(F)F)cc(C(F)(F)F)c3)c3ccccc23)cc1 [Compound 9, 4-(4-{[3,5-bis(trifluoromethyl)phenyl]amino}phthalazin-1-yl)benzamide]
The IC50 of the first is higher: 2000 to 30000 nM for the first, 1000 to 2000 nM for the second. The second is the more potent here.

First: COC(=O)c1ccc(-c2nnc(Nc3cccc(C(C)(C)C)c3)c3ccccc23)cc1 [Compound 4, methyl 4-(4-{[3-(1,1-dimethylethyl)phenyl]amino}phthalazin-1-yl)benzoate]
Second: COC(=O)c1ccc(-c2nnc(Nc3cccc(Cl)c3)c3ccccc23)cc1 [Compound 16, methyl 4-{4-[(3-chlorophenyl)amino]phthalazin-1-yl}benzoate]
The IC50 of the first is higher: 500 to 1000 nM for the first, 150 to 500 nM for the second.

`O=c1[nH]ccn1-c1ccc(-c2nnc(Nc3cc(C(F)(F)F)cc(C(F)(F)F)c3)c3ccccc23)cc1` [Compound 5, 1-[4-(4-{[3,5-bis(trifluoromethyl)phenyl]amino}phthalazin-1-yl)phenyl]-1,3-dihydro-2H-imidazol-2-one] and `O=C1NCCN1c1ccc(-c2nnc(Nc3cc(C(F)(F)F)cc(C(F)(F)F)c3)c3ccccc23)cc1` [Compound 23, 1-[4-(4-{[3,5-bis(trifluoromethyl)phenyl]amino}phthalazin-1-yl)phenyl]imidazolidin-2-one] cannot be ordered by IC50: at most 150 nM for the first, at most 150 nM for the second.

`COC(=O)c1ccc(-c2nnc(Nc3cc(NCCCN(C)C)cc(C(F)(F)F)c3)c3ccccc23)cc1` [Compound 8, methyl 4-(4-{[3-{[3-(dimethylamino)propyl]amino}-5-(trifluoromethyl)phenyl]amino}phthalazin-1-yl)benzoate] and `COC(=O)c1ccc(-c2nnc(Nc3cc(NCCN(C)C)cc(C(F)(F)F)c3)c3ccccc23)cc1` [Compound 36, methyl 4-(4-{[3-{[2-(dimethylamino)ethyl]amino}-5-(trifluoromethyl)phenyl]amino}phthalazin-1-yl)benzoate] fall in the same range of IC50: 150 to 500 nM for the first, 150 to 500 nM for the second.

`COC(=O)c1ccc(-c2nnc(Nc3cc(OCCN(C)C)cc(C(F)(F)F)c3)c3ccccc23)cc1` [Compound 10, methyl 4-(4-{[3-{[2-(dimethylamino)ethyl]oxy}-5-(trifluoromethyl)phenyl]amino}phthalazin-1-yl)benzoate] and `COC(=O)c1ccc(-c2nnc(Nc3cc(CCCN(C)C)cc(C(F)(F)F)c3)c3ccccc23)cc1` [Compound 22, methyl 4-[4-({3-[3-(dimethylamino)propyl]-5-(trifluoromethyl)phenyl}amino)phthalazin-1-yl]benzoate] cannot be ordered by IC50: 150 to 500 nM for the first, at most 150 nM for the second.

`CC(=O)c1ccc(-c2nnc(Nc3cc(C(F)(F)F)cc(C(F)(F)F)c3)c3ccccc23)s1` [Compound 12, 1-[5-(4-{[3,5-bis(trifluoromethyl)phenyl]amino}phthalazin-1-yl)-2-thienyl]ethanone] and `COC(=O)c1ccc(-c2nnc(Nc3cc(C(F)(F)F)cc(C(F)(F)F)c3)c3ccccc23)s1` [Compound 17, methyl 5-(4-{[3,5-bis(trifluoromethyl)phenyl]amino}phthalazin-1-yl)thiophene-2-carboxylate] fall in the same range of IC50: 2000 to 30000 nM for the first, 2000 to 30000 nM for the second.

First: COC(=O)c1ccc(-c2nnc(Nc3cccc(C(F)(F)F)c3)c3cccnc23)cc1 [Compound 13]
Second: COC(=O)c1ccc(-c2nnc(Nc3cccc(C(F)(F)F)c3)c3cnccc23)cc1 [Compound 29, methyl 4-(4-{[3-(trifluoromethyl)phenyl]amino}pyrido[3,4-d]pyridazin-1-yl)benzoate]
The IC50 of the first is higher: 500 to 1000 nM for the first, 150 to 500 nM for the second.

`COC(=O)c1ccc(-c2nnc(Nc3cc(Cl)cc(C(F)(F)F)c3)c3ccccc23)cc1` [Compound 14, methyl 4-(4-{[3-chloro-5-(trifluoromethyl)phenyl]amino}phthalazin-1-yl)benzoate] and `COC(=O)c1ccc(-c2nnc(Nc3cc(F)cc(C(F)(F)F)c3)c3ccccc23)cc1` [Compound 35, methyl 4-(4-{[3-fluoro-5-(trifluoromethyl)phenyl]amino}phthalazin-1-yl)benzoate] cannot be ordered by IC50: at most 150 nM for the first, 150 to 500 nM for the second.

First: COC(=O)c1ccc(-c2nnc(Nc3cc(C(=O)OC)cc(C(F)(F)F)c3)c3ccccc23)cc1 [Compound 15, methyl 3-[(4-{4-[(methyloxy)carbonyl]phenyl}phthalazin-1-yl)amino]-5-(trifluoromethyl)benzoate]
Second: COC(=O)c1ccc(-c2nnc(Nc3cc(OC)cc(C(F)(F)F)c3)c3ccccc23)cc1 [Compound 32, methyl 4-(4-{[3-(methyloxy)-5-(trifluoromethyl)phenyl]amino}phthalazin-1-yl)benzoate]
The IC50 of the first is higher: 2000 to 30000 nM for the first, 500 to 1000 nM for the second.

First: O=Cc1ccc(-c2nnc(Nc3cc(C(F)(F)F)cc(C(F)(F)F)c3)c3ccccc23)cc1 [Compound 18, 4-(4-{[3,5-bis(trifluoromethyl)phenyl]amino}phthalazin-1-yl)benzaldehyde]
Second: CC(=O)Nc1ccc(-c2nnc(Nc3cc(C(F)(F)F)cc(C(F)(F)F)c3)c3ccccc23)cc1 [Compound 28, N-[4-(4-{[3,5-bis(trifluoromethyl)phenyl]amino}phthalazin-1-yl)phenyl]acetamide]
The IC50 of the first is higher: 2000 to 30000 nM for the first, 500 to 1000 nM for the second. The second is the more potent here.

Compared with `CCc1cc(Nc2nnc(-c3ccc(C(=O)OC)cc3)c3ccccc23)cc(C(F)(F)F)c1` [Compound 19, methyl 4-(4-{[3-ethyl-5-(trifluoromethyl)phenyl]amino}phthalazin-1-yl)benzoate], `COC(=O)c1ccc(-c2nnc(Nc3cc(CN(C)C)cc(C(F)(F)F)c3)c3ccccc23)cc1` [Compound 30, methyl 4-[4-({3-[(dimethylamino)methyl]-5-(trifluoromethyl)phenyl}amino)phthalazin-1-yl]benzoate] is higher in IC50: at most 150 nM for the first, 500 to 1000 nM for the second.

Compared with `COC(=O)c1ccc(-c2nnc(Nc3cc(N4CCN(C)CC4)cc(C(F)(F)F)c3)c3ccccc23)cc1` [Compound 20, methyl 4-(4-{[3-(4-methylpiperazin-1-yl)-5-(trifluoromethyl)phenyl]amino}phthalazin-1-yl)benzoate], `COC(=O)c1ccc(-c2nnc(Nc3ccc(Cl)c(C(F)(F)F)c3)c3ccccc23)cc1` [Compound 24, methyl 4-(4-{[4-chloro-3-(trifluoromethyl)phenyl]amino}phthalazin-1-yl)benzoate] is lower in IC50: 1000 to 2000 nM for the first, 500 to 1000 nM for the second.

Compared with `CCc1cccc(Nc2nnc(-c3ccc(C(=O)OC)cc3)c3ccccc23)c1` [Compound 21, methyl 4-{4-[(3-ethylphenyl)amino]phthalazin-1-yl}benzoate], `COC(=O)c1ccc(-c2nnc(Nc3ccc(Cl)cc3)c3ccccc23)cc1` [Compound 26] is higher in IC50: 150 to 500 nM for the first, 1000 to 2000 nM for the second. The first is the more potent here.

First: O=C1OCc2cc(-c3nnc(Nc4cc(C(F)(F)F)cc(C(F)(F)F)c4)c4ccccc34)ccc21 [Compound 27, 5-(4-{[3,5-bis(trifluoromethyl)phenyl]amino}phthalazin-1-yl)-2-benzofuran-1(3H)-one]
Second: FC(F)(F)c1cc(Nc2nnc(-c3ccc4cn[nH]c4c3)c3ccccc23)cc(C(F)(F)F)c1 [Compound 33, N-[3,5-bis(trifluoromethyl)phenyl]-4-(1H-indazol-6-yl)phthalazin-1-amine]
The IC50 of the first is higher: 2000 to 30000 nM for the first, at most 150 nM for the second.

In the case of `COC(=O)c1ccc(-c2nnc(Nc3ccc(OC)c(C(F)(F)F)c3)c3ccccc23)cc1` [Compound 34, methyl 4-(4-{[4-(methyloxy)-3-(trifluoromethyl)phenyl]amino}phthalazin-1-yl)benzoate], the IC50 is reported as 500 to 1000 nM.
